Reference: US12291514B1, “Ethyl 2-[9-(2-hydroxypyridin-3-yl)-3,6-diphenyl-1,8-dioxo-3,4,9,10-tetrahydroacridine-10-yl]-acetate as an antimicrobial compound” (KING FAISAL UNIVERSITY, priority 2023, dated 2025)

Tests used:
Format in all cases: cell-based
Settings in all cases: after 10, 20, 40 and 60 minutes at all dilutions 1:100, 1:200, 1:400, 1:800
[1] = system: Pseudomonas aeruginosa; experiment: Antimicrobial screening by agar dilution, Ps. aeruginosa
Procedure: (§1) The antibacterial properties of the synthesized compound, ethyl 2-[9-(2-hydroxypyridin-3-yl)-3,6-diphenyl-1,8-dioxo-3,4,9,10-tetrahydroacridine-10-yl]-acetate, were studied by the method of agar dilution. Test solutions of each compound was prepared in concentration of 1% using dimethylformamide as a solvent then they are diluted in physiological solution to obtain the final experimental dilutions 1:100, 1:200, 1:400, 1:800. The effect of these substances are compared with furacillin in a controllable study. The testing microbes used were gram positive bacteria Staphylococcus aureus, gram negative bacteria Pseudomonas aeruginosa and Escherichia coli and Candida albicans fungus. The experiments used for this survey were meat-pentonlu agar (EPA) for cultivation of bacteria and Saburo environment for the fungus. Each experiment used 1 mL of test solution on each plate […]. Two drops of emulsified with microbes feel were added. All experimental samples were taken from the agar after 10, 20, 40, 60 minutes in the environment on the basis of Patrk planted. The bacteria were cultivated at a temperature of 37° C. for 1 day and the mushroom was kept in a thermostat for 2 hours at a temperature of 28° C. Then results were checked.

[2] = system: Candida albicans; experiment: Antimicrobial screening by agar dilution, Candida albicans
Procedure: as §1

[3] = system: Escherichia coli; experiment: Antimicrobial screening by agar dilution, E. Coli
Procedure: as §1

[4] = system: Staphylococcus aureus; experiment: Antimicrobial screening by agar dilution, St. Aereus
Procedure: as §1

Measured: inhibition activity (in words)

CCOC(=O)CN1C2=C(C(=O)CC(c3ccccc3)C2)C(c2cccnc2O)C2=C1CC(c1ccccc1)CC2=O (stereo not shown) [ethyl 2-[9-(2-hydroxypyridin-3-yl)-3,6-diphenyl-1,8-dioxo-3,4,9,10-tetrahydroacridine-10-yl]-acetate]
highest inhibition activity: [1] | [2] | [3] | [4]
